pKi: −log10 of the molar value.
molecular target: T1, hMCHR (MCH receptor) (Homo sapiens, UniProt Q99705); experiment: MCH Assay PCOP Protocol ([125I]-MCH SPA binding to hMCHR-CHO membranes); conditions: [125I]-MCH 0.5 nM, hMCHR-CHO membranes; read-out: Activity (ranges of Ki values);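 for Activity (Ki range): A 0.4–50 nM B 51–500 nM C 501–2500 nM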
T1 construct: (or internally produced); host or cells: CHO (Chinese hamster ovary) cells, membrane preparation
Outline: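 SPA binding with 10 μg hMCHR-CHO membranes and WGA-SPA beads in 25 mM HEPES pH 7.4, 10 mM NaCl, 10 mM MgCl2, 5 mM MnCl2, 0.1% BSA.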

T1 sequence (Q99705 whole entry): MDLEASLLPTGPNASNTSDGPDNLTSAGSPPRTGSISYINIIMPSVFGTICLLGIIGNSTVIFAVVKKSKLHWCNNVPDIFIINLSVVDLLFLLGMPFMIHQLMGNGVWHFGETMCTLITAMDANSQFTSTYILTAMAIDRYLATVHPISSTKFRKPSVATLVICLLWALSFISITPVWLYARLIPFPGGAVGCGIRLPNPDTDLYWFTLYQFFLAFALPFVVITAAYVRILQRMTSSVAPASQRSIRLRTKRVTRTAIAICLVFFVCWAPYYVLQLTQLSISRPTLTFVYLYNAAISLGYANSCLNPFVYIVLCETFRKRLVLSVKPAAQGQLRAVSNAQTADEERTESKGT

CC(CCNC1CCCC1)(CNC(=O)Nc1ccc(F)c([N+](=O)[O-])c1)c1ccc(Cl)c(Cl)c1 (centres unmarked) [Example 113] and O=C(NCC(CCNC1CCCC1)c1ccc(Cl)c(Cl)c1)Nc1ccc(F)c(F)c1 (centres unmarked) [Example 144] fall in the same range of pKi: 5.60 to 6.30 for the first, 5.60 to 6.30 for the second.

N#Cc1cccc(-c2ccc(C(CCNC3CCCC3)CNC(=O)Nc3ccc(F)c(F)c3)cc2)c1 (centres unmarked) [Example 74] and N#Cc1cccc(-c2ccc(C(CCNC3CCCC3)CNC(=O)Nc3ccc(F)c(Cl)c3)cc2)c1 (centres unmarked) [Example 75] fall in the same range of pKi: 7.30 to 9.40 for the first, 7.30 to 9.40 for the second.

O=C(NCC(CCN1CCC(NC(=O)c2ccno2)C1)c1ccc(Cl)c(Cl)c1)Nc1cc(Cl)cc(Cl)c1 (centres unmarked) [Example 209] and Cc1ccc(C(CCN2CCC(NC(=O)c3ccno3)CC2)CNC(=O)Nc2cc(Cl)cc(Cl)c2)cc1 (centres unmarked) [Example 205] fall in the same range of pKi: 5.60 to 6.30 for the first, 5.60 to 6.30 for the second.

Compared with C[N+](C)([O-])CCC(CNC(=O)Nc1cc(Cl)cc(Cl)c1)c1ccc(-c2cc[n+]([O-])cc2)cc1 (centres unmarked) [Example 41], O=C(NCC(CCNC1CCCC1)c1ccc(-c2cc(F)cc(F)c2)cc1)Nc1cc(Cl)cc(Cl)c1 (centres unmarked) [Example 95] is higher in pKi: 5.60 to 6.30 for the first, 7.30 to 9.40 for the second.

CC(=O)NC1CCN(CCC(CNC(=O)Nc2cc(Cl)cc(Cl)c2)c2ccc(Cl)c(Cl)c2)CC1 (centres unmarked) [Example 199] and COCC(=O)NC1CCN(CCC(CNC(=O)Nc2cc(Cl)cc(Cl)c2)c2ccc(Cl)c(Cl)c2)CC1 (centres unmarked) [Example 195] fall in the same range of pKi: 6.30 to 7.29 for the first, 6.30 to 7.29 for the second.

CN(C)CCCNCCC(CNC(=O)Nc1cc(Cl)cc(Cl)c1)c1cccc(-c2ccc3c(c2)OCO3)c1 (centres unmarked) [Example 163] and CN(C)CCCNCCC(CNC(=O)Nc1cc(Cl)cc(Cl)c1)c1ccc2c(c1)OCO2 (centres unmarked) [Example 116] fall in the same range of pKi: 5.60 to 6.30 for the first, 5.60 to 6.30 for the second.

First: O=C(NCC(CCNC1CCCC1)c1ccc2c(c1)OCO2)Nc1ccc(F)c([N+](=O)[O-])c1 (centres unmarked) [Example 121]
Second: O=C(NCC(CCNC1CCCC1)c1cccc(-c2cccc([N+](=O)[O-])c2)c1)Nc1cc(Cl)cc(Cl)c1 (centres unmarked) [Example 148]
The pKi of the first is lower: 5.60 to 6.30 for the first, 6.30 to 7.29 for the second.

First: COc1cscc1C(=O)NC1CCN(CCC(CNC(=O)Nc2cc(Cl)cc(Cl)c2)c2ccc(Cl)cc2)C1 (centres unmarked) [Example 197]
Second: COc1cscc1C(=O)NC1CCN(CCC(CNC(=O)Nc2cc(Cl)cc(Cl)c2)c2ccc(C)cc2)CC1 (centres unmarked) [Example 203]
The pKi of the first is higher: 6.30 to 7.29 for the first, 5.60 to 6.30 for the second. The first binds more tightly here.

CN(C)CCCNCCC(C)(CNC(=O)Nc1ccc(Cl)c([N+](=O)[O-])c1)c1ccc(Cl)c(Cl)c1 (centres unmarked) [Example 115] and CN(C)CCCNCCC(CNC(=O)Nc1cc(Cl)cc(Cl)c1)c1cccc(-c2cccc(C#N)c2)c1 (centres unmarked) [Example 169] fall in the same range of pKi: 5.60 to 6.30 for the first, 5.60 to 6.30 for the second.

First: CNCCC(CNC(=O)Nc1ccc(Cl)cc1)c1ccc(-c2cccc(C#N)c2)cc1 (centres unmarked) [Example 64]
Second: N#Cc1cccc(-c2ccc(C(CCNC3CCCC3)CNC(=O)c3cccc(Cl)c3)cc2)c1 (centres unmarked) [Example 85]
The pKi of the first is higher: 7.30 to 9.40 for the first, 6.30 to 7.29 for the second. The first binds more tightly here.

First: CC(=O)NC1CCN(CCC(CNC(=O)Nc2cc(Cl)cc(Cl)c2)c2ccc(C)cc2)CC1 (centres unmarked) [Example 206]
Second: Cc1ccc(C(CCN2CCC(NC(=O)C3CCC3)CC2)CNC(=O)Nc2cc(Cl)cc(Cl)c2)cc1 (centres unmarked) [Example 187]
The pKi of the first is lower: 5.60 to 6.30 for the first, 6.30 to 7.29 for the second.

Compared with Cc1ccc(C(CCN2CCC(NS(C)(=O)=O)C2)CNC(=O)Nc2cc(Cl)cc(Cl)c2)cc1 (centres unmarked) [Example 207], Cc1ccc(C(CCNC2CCCC2)CNC(=O)Nc2cc(C(F)(F)F)cc(C(F)(F)F)c2)cc1C (centres unmarked) [Example 109] is higher in pKi: 5.60 to 6.30 for the first, 6.30 to 7.29 for the second. The second binds more tightly here.

same assay, conditions: [125I]-MCH SPA binding, hMCHR-CHO membranes; Ki class ranges; read-out: Activity (range of Ki)

CCCN(CC)CCC(CNC(=O)Nc1cc(C(F)(F)F)cc(C(F)(F)F)c1)c1ccc(Cl)c(Cl)c1 (centres unmarked) [Example 424] and CCN(CC)CCC(CNC(=O)Nc1cc(C(F)(F)F)cc(C(F)(F)F)c1)c1ccc(Cl)c(Cl)c1 (centres unmarked) [Example 433] fall in the same range of pKi: 5.60 to 6.30 for the first, 5.60 to 6.30 for the second.

First: COCC1CCCN1CCC(CNC(=O)Nc1cc(C(F)(F)F)cc(C(F)(F)F)c1)c1ccc(Cl)c(Cl)c1 (centres unmarked) [Example 441]
Second: O=C(NCC(CCN1CCCC1)c1ccc(Cl)c(Cl)c1)Nc1cc(C(F)(F)F)cc(C(F)(F)F)c1 (centres unmarked) [Example 422]
The pKi of the first is lower: 5.60 to 6.30 for the first, 6.30 to 7.29 for the second. The second binds more tightly here.

Compared with Cc1ccc(C(CCN2CCC(N3CCCCC3)CC2)CNC(=O)Cc2ccc(Cl)c(Cl)c2)cc1 (centres unmarked) [Example 451], Cc1ccc(C(CCN2CCC(N3CCCCC3)CC2)CNC(=O)Nc2cc(C(F)(F)F)cc(C(F)(F)F)c2)cc1 (centres unmarked) [Example 443] is higher in pKi: 5.60 to 6.30 for the first, 6.30 to 7.29 for the second. The second binds more tightly here.

Cc1cc(C)cc(C(=O)NCC(CCN2CCCCC2)c2ccc(Cl)c(Cl)c2)c1 (centres unmarked) [Example 456] and O=C(NCC(CCNC1c2ccccc2CC1O)c1ccc(Cl)c(Cl)c1)c1cc(C(F)(F)F)cc(C(F)(F)F)c1 (centres unmarked) [Example 420] fall in the same range of pKi: 5.60 to 6.30 for the first, 5.60 to 6.30 for the second.

CN(C)CCCNCCC(CNC(=O)Nc1cc(C(F)(F)F)cc(C(F)(F)F)c1)c1ccc(Cl)c(Cl)c1 (centres unmarked) [Example 425] showed a pKi of 5.60 to 6.30.

same assay, conditions: [125I]-MCH binding to hMCHR-CHO membranes; class symbols for ranges of Ki; read-out: Activity (Ki range)

O=C(NCc1cc(C(F)(F)F)cc(C(F)(F)F)c1)C(CCN1CCC(O)CC1)c1ccc(Cl)c(Cl)c1 (centres unmarked) [Example 389] and CC1CCN(CCC(CNC(=O)c2cc(C(F)(F)F)cc(C(F)(F)F)c2)c2ccc(Cl)c(Cl)c2)CC1 (centres unmarked) [Example 405] fall in the same range of pKi: 5.60 to 6.30 for the first, 5.60 to 6.30 for the second.

O=C(NCc1cc(C(F)(F)F)cc(C(F)(F)F)c1)C(CCNCCc1c[nH]c2cc(F)ccc12)c1ccc(Cl)c(Cl)c1 (centres unmarked) [Example 381] and CC(C)OCCCNCCC(C(=O)NCc1cc(C(F)(F)F)cc(C(F)(F)F)c1)c1ccc(Cl)c(Cl)c1 (centres unmarked) [Example 384] fall in the same range of pKi: 5.60 to 6.30 for the first, 5.60 to 6.30 for the second.

CCN1CCCC1CNCCC(CNC(=O)c1cc(C(F)(F)F)cc(C(F)(F)F)c1)c1ccc(Cl)c(Cl)c1 (centres unmarked) [Example 407] and CN1CCCC1CCNCCC(CNC(=O)c1cc(C(F)(F)F)cc(C(F)(F)F)c1)c1ccc(Cl)c(Cl)c1 (centres unmarked) [Example 413] fall in the same range of pKi: 5.60 to 6.30 for the first, 5.60 to 6.30 for the second.

O=C(NCC(CCNCc1ccc2c(c1)OCO2)c1ccc(Cl)c(Cl)c1)Nc1cc(Cl)cc(Cl)c1 (centres unmarked) [Example 295] and Cn1cnc(CCNCCC(CNC(=O)Nc2cc(Cl)cc(Cl)c2)c2ccc(Cl)c(Cl)c2)c1 (centres unmarked) [Example 297] fall in the same range of pKi: 5.60 to 6.30 for the first, 5.60 to 6.30 for the second.

First: CCCCN(CCC(CNC(=O)c1cc(C(F)(F)F)cc(C(F)(F)F)c1)c1ccc(Cl)c(Cl)c1)C1CC1 (centres unmarked) [Example 401]
Second: O=C(NCC(CCNC1CCC1)c1ccc(Cl)c(Cl)c1)Nc1cc(C(F)(F)F)cc(C(F)(F)F)c1 (centres unmarked) [Example 314]
The pKi of the first is lower: 5.60 to 6.30 for the first, 6.30 to 7.29 for the second.

First: CN(C)CCNCCC(CNC(=O)Nc1cc(C(F)(F)F)cc(C(F)(F)F)c1)c1ccc(Cl)c(Cl)c1 (centres unmarked) [Example 332]
Second: CN(C)CCCNCCC(CNC(=O)Nc1ccc(Cl)c(Cl)c1)c1ccc(Cl)c(Cl)c1 (centres unmarked) [Example 305]
The pKi of the first is higher: 6.30 to 7.29 for the first, 5.60 to 6.30 for the second. The first binds more tightly here.

NC1CCN(CCC(CNC(=O)Nc2cc(Cl)cc(Cl)c2)c2ccc(Cl)c(Cl)c2)CC1 (centres unmarked) [Example 322] and Cc1cc(C)cc(NC(=O)NCC(CCN2CCC(N3CCCCC3)CC2)c2ccc(Cl)c(Cl)c2)c1 (centres unmarked) [Example 377] fall in the same range of pKi: 5.60 to 6.30 for the first, 5.60 to 6.30 for the second.

First: CCNC(=O)NC1CCN(CCC(CNC(=O)Nc2cc(Cl)cc(Cl)c2)c2ccc(C)cc2)CC1 (centres unmarked) [Example 327]
Second: Cc1ccc(C(CCNC2CCCCC2)CNC(=O)Nc2cc(Cl)cc(Cl)c2)cc1 (centres unmarked) [Example 268]
The pKi of the first is lower: 5.60 to 6.30 for the first, 6.30 to 7.29 for the second.

Compared with Cc1cccc(C(CCNCCc2c[nH]c3ccccc23)CNC(=O)Nc2cc(C(F)(F)F)cc(C(F)(F)F)c2)c1 (centres unmarked) [Example 336], O=C(NCC(CCNCCc1c[nH]c2ccccc12)c1ccc(Cl)cc1)Nc1cc(C(F)(F)F)cc(C(F)(F)F)c1 (centres unmarked) [Example 330] is higher in pKi: 5.60 to 6.30 for the first, 6.30 to 7.29 for the second. The second binds more tightly here.

First: COc1ccc(-c2ccc(C(CCNC3CCCC3)CNC(=O)Nc3cc(Cl)cc(Cl)c3)cc2)cc1 (centres unmarked) [Example 241]
Second: O=S(=O)(NCC(CCN1CCCC1)c1cccc(Cl)c1)c1ccc(Cl)c(Cl)c1 (centres unmarked) [Example 349]
The pKi of the first is higher: 6.30 to 7.29 for the first, 5.60 to 6.30 for the second. The first binds more tightly here.

— US7034056B2, “Aryl and biaryl compounds having MCH modulatory activity” (Pharmacopeia Drug Discovery, inc., priority 2001, dated 2006)
